Experimental data taken from patent publication US8242251B2, “Unsymmetrical cyanine dimer compounds and their application” (Life Technologies Corporation, priority 2003, dated 2012).

Columns and labels:
[1] = test system: Bovine pulmonary arterial endothelial cells; assay: Cell permeability and nucleic acid label pattern with a concentration series in live cells (Example 43); assay type: cell-based
Procedure: Bovine pulmonary arterial endothelial cells were grown in media for one day after plating on coverslips, then labeled with 50 nM MitoTracker Red CMXRos (Molecular Probes, Inc., M7512) in Hank's balanced salt solution (HBSS) with HEPES for general mitochondrial labeling. After washing in HBSS, cells were then labeled with Compound 1 at various concentrations ranging from 100 nM up to 10 μM in media for 20 minutes at 37°. Cells were washed well with HBSS. Coverslips were examined mounted in warm HBSS on a Nikon Eclipse 800 upright fluorescent microscope and imaged with a FITC filter set, a Princeton Instruments MicroMax cooled CCD camera, and Universal Imaging MetaMorph imaging software. […] The mtDNA signal was localized within mitochondria, as evidenced by MitoTracker Red labeling.

[2] = test system: RNA versus DNA; assay: Screening of fluorescence properties and relative fluorescence enhancement with RNA versus DNA (Table 3); assay type: binding; conditions: for Fluorescence Enhancement Ratio (RNA/DNA): fluorescence enhancement when associated with RNA to that when associated with DNA
[3] = test system: Bovine pulmonary arterial endothelial cells; assay: Nucleic acid binding after RNase and DNase on methanol-fixed eukaryotic cells (Example 38); assay type: cell-based
Procedure: (§1) Bovine pulmonary arterial endothelial cells were grown in media for one day after plating and then fixed ten minutes in 100% methanol at −20° C. Cells were washed 3×5 minutes in PBT (0.05M phosphate-buffered saline (PBS) containing 0.1% Triton X-100) and then treated with RNase (from Roche, at 1:500 dilution) or DNase (from Promega, at 1:100 dilution) for 2 hours at 37° C. Cells were washed again for 3×5 minutes in PBT and then labeled with Compound 6 at 687 nM concentration for 20 minutes. Cells were washed 3×10 minutes in PBS and mounted on microscope slides in ProLong antifade mounting medium. After the mountant had hardened, slides were examined on a Nikon Eclipse 800 upright fluorescent microscope and imaged with a FITC filter set, a Princeton Instrument MicroMax cooled CCD camera, and Universal Imaging MetaMorph imaging software. […] See, FIG. 4.

[4] = test system: Bovine pulmonary arterial endothelial cells; assay: Nucleic acid binding in live eukaryotic cells followed by fixing of cells (Example 40); assay type: cell-based
Procedure: Bovine pulmonary arterial endothelial cells were grown in media for one day after plating and then labeled before fixing with 687 nM Compound 6 for 20 minutes. Some cells were rinsed in media and separated for live imaging. The other cells were rinsed twice with media and then fixed in 4% paraformaldehyde for 15 minutes at room temperature, 0.5% glutaraldehyde for 5 minutes at room temperature, or 100% methanol for 10 minutes at −20° C. Cells were washed 3×10 minutes in phosphate-buffered saline and mounted on microscope slides in ProLong antifade mounting medium (Molecular Probes, Inc.). After the mountant had hardened, slides were examined on a Nikon Eclipse 800 upright fluorescent microscope and imaged with a FITC filter set, a Princeton Instrument MicroMax cooled CCD camera, and Universal Imaging MetaMorph imaging software. […] Fixation with either paraformaldehyde or glutaraldehyde removed all mitochondrial labeling. Nucleolar label remained, but nuclear label increased. […] Methanol-fixation had good nucleolar labeling, with only a slight increase in nuclear labeling. All mitochondrial labeling was removed. Cytoplasmic label increased slightly, but not nearly to the extent seen with other fixation. Results generally indicate that methanol-fixation is the recommended fixation technique.

[5] = test system: Bovine pulmonary arterial endothelial cells; assay: Nucleic acid binding on RNase and DNase treated formaldehyde-fixed eukaryotic cells (Example 39); assay type: cell-based; conditions: Compound 6 687 nM, Compound 19 1 μM
Procedure: as §1, with “fixed fifteen” for “fixed ten”, “in 4% paraformaldehyde.” for “in 100% methanol at −20° C.”, “1:100 dilution), or both” for “1:100 dilution)”, “concentration or Compound 19 at 1 μM concentration in PBS” for “concentration”, “mounting medium (Molecular Probes, Inc.).” for “mounting medium.”, “FIG. 5.” for “FIG. 4.”

[6] = test system: Gram-positive (Staphylococcus aureus) and Gram-negative (Eshcerichia coli) bacteria; assay: Rifampicin-depletion of bacterial RNA, flow cytometry and microplate reader (Example 37); assay type: cell-based; conditions: for fluorescent signal of rifampicin treated versus untreated bacteria: 25 μg/mL rifampicin one hour, compound 0.25, 0.5 or 1 μM, 10-15 minutes
Procedure: Gram-positive (Staphylococcus aureus) and Gram-negative (Eshcerichia coli) bacteria in growth medium were treated with 25 μg/mL rifampicin for one hour. Treated and untreated bacteria were counted, diluted to 1×10^7 bacteria/mL in 0.85% NaCl, and 1 mL aliquots incubated with 0.25 μM, 0.5 μM, or 1 μM Compound 6 or Compound 9 for 10-15 minutes protected from light. The samples were analyzed by flow cytometry and then 100 μL volumes were transferred to a microplate in triplicate and analyzed by a microplate reader. The fluorescence intensity was corrected against the dye in solution, which was weakly fluorescent.

[7] = test system: Bovine pulmonary arterial endothelial cells; assay: Nucleic acid binding in methanol-fixed eukaryotic cells (Example 42); assay type: cell-based
Procedure: Bovine pulmonary arterial endothelial cells were grown in media for one day after plating on coverslips and then fixed 10 minutes in −20° C. 100% methanol. Cells were washed 3×5 minutes 50 mM phosphate buffered saline (PBS), pH 7.3. Cells were labeled with Compound 11 at 5 μM, 1 μM, or 500 nM concentration in PBS for 20 minutes, washed 3×10 minutes in PBS, and mounted in ProLong antifade mountant (Molecular Probes, Inc.). Cells were labeled with Compound 6 at 500 nM in PBS for 20 minutes. After the mountant had hardened, slides were examined on a Nikon Eclipse 800 upright fluorescent microscope and imaged with a blue-green filter set, a Princeton Instruments MicroMax cooled CCD camera, and Universal Imaging MetaMorph imaging software. Comparison of emission wavelength was made using a Zeiss 510 confocal microscope utilizing a META spectral unmixing system. […] Optimal labeling for both compounds appeared to be about […]. […] See, FIG. 6.

[8] = methanol fixed cells, cytoplasm, nucleus and nucleolus (FIG. 4)
[9] = methanol-fixed, compound 687 nM
[10] = methanol-fixed, compound 687 nM, by eye

C[n+]1c(/C=C2\C=C(SCCCCCCCCCSC3=C/C(=C\c4sc5ccccc5[n+]4C)c4ccccc4N3c3ccccc3)N(c3ccccc3)c3ccccc32)sc2ccccc21 [Compound 1]
staining pattern at 1 μM ([1]; 20 minutes at 37°): nuclear labeling was seen as well as mtDNA | staining pattern at 3 μM or higher ([1]; 20 minutes at 37°): mtDNA labeling was lost, replaced with ubiquitous cytoplasmic labeling and strong nuclear labeling | staining pattern at 100 nM to 500 nM ([1]; 20 minutes at 37°, MitoTracker Red co-label): mitochondrial DNA (mtDNA), with no nuclear label, or cytoplasmic background | concentration at which mitochondrial morphology was disrupted ([1]; as evidenced with MitoTracker Red): ≥ 3 μM | Fluorescence Enhancement Ratio (RNA/DNA) [2]: 1.0

C[n+]1c(/C=C2\C=C(N3CCN(C4=C/C(=C\c5sc6ccccc6[n+]5C)c5ccccc5N4c4ccccc4)CC3)N(c3ccccc3)c3ccccc32)sc2ccccc21.[Cl-].[Cl-] [Compound 6]
signal intensity of DNase treated cells [3, 8]: no decrease in signal intensity | signal intensity of RNase treated cells [3, 8]: significant reduction in signal intensity | nuclear labeling after DNase [3, 9]: not DNase | nuclear labeling after RNase [3, 9]: significantly reduced by RNase | nucleolar intensity after DNase ([3]; methanol-fixed, compound 687 nM, DNase 2 hours 37° C.): did not significantly affect | labeling of nucleoli after RNase ([3]; methanol-fixed, compound 687 nM, RNase 2 hours 37° C.): eliminated | cytoplasmic label after DNase [3, 10]: not DNase | cytoplasmic label after RNase [3, 10]: reduced by RNase | labeling pattern in live cells ([4]; 687 nM, 20 minutes, live imaging): strong nucleolar label, strong punctate labeling in mitochondria consistent with mtDNA, and dimmer ubiquitous mitochondrial labeling | labeling pattern after fixation with paraformaldehyde or glutaraldehyde ([4]; labeled live at 687 nM, then 4% paraformaldehyde or 0.5% glutaraldehyde): removed all mitochondrial labeling. Nucleolar label remained, but nuclear label increased. General cytoplasmic labeling also increased significantly | labeling pattern after methanol-fixation ([4]; labeled live at 687 nM, then 100% methanol 10 minutes −20° C.): good nucleolar labeling, with only a slight increase in nuclear labeling. All mitochondrial labeling was removed. Cytoplasmic label increased slightly | cytoplasmic label after DNase [5]: significantly reduced by both RNase and DNase | cytoplasmic label after RNase [5]: significantly reduced by both RNase and DNase | labeling of nucleoli after RNase [5]: eliminated | nuclear labeling after DNase [5]: significantly reduced by both RNase and DNase | nuclear labeling after RNase [5]: significantly reduced by both RNase and DNase | nucleolar intensity after DNase [5]: significantly reduced | fluorescent signal of rifampicin treated versus untreated bacteria [6]: decrease in fluorescent signal after removal of mRNA | signal intensity on RNA versus DNA in S. aureus cells with and without rifampicin ([6]; S. aureus, compound 0.25, 0.5 and 1 μM): stronger signal intensity when bound to RNA | Fluorescence Enhancement Ratio (RNA/DNA) [2]: 7.0 | concentration of peak emission in detection of intracellular nucleic acid ([7]; FIG. 6): 500 nM | optimal labeling concentration ([7]; methanol-fixed cells): about 500 μM | staining pattern ([7]; methanol-fixed, Compound 11 5 μM, 1 μM or 500 nM, Compound 6 500 nM, 20 minutes): strong nucleolar and cytoplasmic labeling, with dimmer nuclear labeling, indicating selective RNA staining

C[n+]1c(/C=C2\C=C(Sc3nnc(SC4=C/C(=C\c5sc6ccccc6[n+]5C)c5ccccc5N4c4ccccc4)s3)N(c3ccccc3)c3ccccc32)sc2ccccc21.[Cl-].[Cl-] [Compound 7]
Fluorescence Enhancement Ratio (RNA/DNA) [2]: 2.3

CN1/C(=C\c2c/c(=N/C3CCC(/N=c4/cc(/C=C5/Sc6ccccc6N5C)c5ccccc5n4-c4ccccc4)CC3)n(-c3ccccc3)c3ccccc23)Sc2ccccc21 (centres unmarked) [Compound 8]
Fluorescence Enhancement Ratio (RNA/DNA) [2]: 4.9

CN1/C(=C\c2c/c(=N/N3CCN(/N=c4/cc(/C=C5/Sc6ccccc6N5C)c5ccccc5n4-c4ccccc4)CC3)n(-c3ccccc3)c3ccccc23)Sc2ccccc21 [Compound 9]
fluorescent signal of rifampicin treated versus untreated bacteria [6]: decrease in fluorescent signal after removal of mRNA | Fluorescence Enhancement Ratio (RNA/DNA) [2]: 1.7

C[n+]1c(/C=C2\C=C(N(CCC[N+](C)(C)C)CCC[N+](C)(C)C)N(CCCCCCCCCCN3C(N(CCC[N+](C)(C)C)CCC[N+](C)(C)C)=C/C(=C\c4sc5ccccc5[n+]4C)c4ccccc43)c3ccccc32)sc2ccccc21.Cl.Cl [Compound 13]
Fluorescence Enhancement Ratio (RNA/DNA) [2]: 2.5

C[n+]1c(/C=C2\C=C(N3CCNCCN(C4=C/C(=C\c5sc6ccccc6[n+]5C)c5ccccc5N4c4ccccc4)CCNCC3)N(c3ccccc3)c3ccccc32)sc2ccccc21.[Cl-].[Cl-] [Compound 15]
Fluorescence Enhancement Ratio (DNA/RNA) ([2]; fluorescence enhancement when associated with DNA to that when associated with RNA): 3.7

C[n+]1c(/C=C/C=C2/C=CN(c3ccccc3)C(N3CCN(C4=C/C(=C\C=C\c5sc6ccccc6[n+]5C)C=CN4c4ccccc4)CC3)=C2)sc2ccccc21 [Compound 18]
Fluorescence Enhancement Ratio (RNA/DNA) [2]: 1.3

COc1ccc2c(c1)N(c1ccccc1)C(N1CCN(C3=C/C(=C\c4sc5ccccc5[n+]4C)c4ccc(OC)cc4N3c3ccccc3)CC1)=C/C2=C\c1sc2ccccc2[n+]1C.[I-].[I-] [Compound 19]
cytoplasmic label after DNase [5]: not reduced at all | cytoplasmic label after RNase [5]: not reduced at all | labeling of nucleoli after RNase [5]: eliminated | nuclear labeling after DNase [5]: not DNase | nuclear labeling after RNase [5]: significantly reduced with RNase | nucleolar intensity after DNase [5]: significantly reduced | Fluorescence Enhancement Ratio (RNA/DNA) [2]: 4.9

CN1/C(=C\c2ccn(-c3ccccc3)/c(=N\N3CCN(/N=c4/cc(/C=C5/Sc6ccccc6N5C)c5ccccc5n4-c4ccccc4)CC3)c2)Sc2ccccc21 [Compound 25]
Fluorescence Enhancement Ratio (RNA/DNA) [2]: 5.6

N=C(N)c1ccc(-c2cc3ccc(C(=N)N)cc3[nH]2)cc1 [DAPI, reference compound]
label intensity of DNA label control after nuclease treatment ([3]; control to test the activity of the DNase, printed as treated with RNase): significant decline in label intensity
